This note sets out measurements from BindingDB's records for doi:10.1021/jm9707838 (Smithkline Beecham, 1998).

The term IC50 denotes the concentration at which inhibition is half-maximal. A high value points to weaker potency.

Molecules are shown by their SMILES.

Assay [1] can be described thus: Inhibition of V-ATPase-driven proton transport in membrane vesicles derived from bovine chromaffin granules (bCG).
Assay [2] can be described thus: Inhibition of V-ATPase-driven proton transport in membrane vesicles derived from chicken osteoclasts (cOc).
Assay [3] in a line: Inhibition of V-ATPase-driven proton transport in membrane vesicles derived from chicken osteoclasts (cOc).
Assay [4] is described as follows: Inhibition of V-ATPase-driven proton transport in membrane vesicles derived from bovine chromaffin granules (bCG).

For `CO/C1=C\C(C)=C\[C@@H](C)[C@@H](O)[C@@H](C)C/C(C)=C/C=C/[C@H](OC)[C@@H]([C@@H](C)[C@@H](O)[C@H](C)C(=O)O)OC1=O` [(2S,3R,4S)-3-Hydroxy-4-((4E,6E,12E,14Z)-(2R,3S,9S,10S,11R)-10-hydroxy-3,15-dimethoxy-7,9,11,13-tetramethyl-16-oxo-oxacyclohexadeca-4,6,12,14-tetraen-2-yl)-2-methyl-pentanoic acid], the half-maximal inhibitory concentration (IC50) in assay [1] and in assay [2] was more than 10 µM throughout.
On to `CO/C1=C\C(C)=C\[C@@H](C)C(=O)[C@@H](C)C/C(C)=C/C=C/[C@H](OC)[C@@H]([C@@H](C)[C@@H](O)[C@H](C)C(=O)O)OC1=O` [(2S,3R,4S)-4-((4E,6E,12E,14Z)-(2R,3S,9S,11R)-3,15-Dimethoxy-7,9,11,13-tetramethyl-10,16-dioxo-oxacyclohexadeca-4,6,12,14-tetraen-2-yl)-3-hydroxy-2-methyl-pentanoic acid], for which the half-maximal inhibitory concentration (IC50) in assay [1] and in assay [2] was more than 10 µM in each case.
For the molecule `CO/C1=C\C(C)=C\[C@@H](C)C(=O)[C@@H](C)C/C(C)=C/C=C/[C@H](OC)[C@@H]([C@@H](C)[C@@H](O)[C@H](C)[C@@]2(O)C[C@@H](C(=O)Oc3ccccc3)[C@H](C)[C@@H](C(C)C)O2)OC1=O` [2-[3-(3,15-Dimethoxy-7,9,11,13-tetramethyl-10,16-dioxo-oxacyclohexadeca-4,6,12,14-tetraen-2-yl)-2-hydroxy-1-methyl-butyl]-2-hydroxy-6-isopropyl-5-methyl-tetrahydro-pyran-4-carboxylic acid phenyl ester], the IC50 in assay [3] and in assay [4] was more than 10 µM throughout.
Turning to `COC(=O)[C@@H](C)[C@H](O)[C@H](C)[C@H]1OC(=O)/C(OC)=C/C(C)=C/[C@@H](C)C(=O)[C@@H](C)C/C(C)=C/C=C/[C@@H]1OC` [(2S,3R,4S)-4-((4E,6E,12E,14Z)-(2R,3S,9S,11R)-3,15-Dimethoxy-7,9,11,13-tetramethyl-10,16-dioxo-oxacyclohexadeca-4,6,12,14-tetraen-2-yl)-3-hydroxy-2-methyl-pentanoic acid methyl ester], the IC50 in assay [1] and in assay [2] was more than 10 µM throughout.
